From US11597724B2, “Herbicidally active 3-phenylisoxazoline-5-carboxamides of tetrahydro and dihydrofuran carboxylic acids and esters” (Bayer Aktiengesellschaft, priority 2017, dated 2023)

Columns and labels:
Assay type in all cases: in vivo
Setaria viridis = assay: Pre-emergence herbicidal activity against SETVI; conditions: dosage 80 g/ha; for pest or weed control at 80 g/ha: Setaria viridis, 504 h
Excerpt: (§1) 1. Pre-Emergence Herbicidal Action and Crop Plant Compatibility Seeds of monocotyledonous and dicotyledonous weed plants and crop plants are placed in plastic or wood fiber pots and covered with soil. The compounds of the invention, formulated in the form of wettable powders (WP) or as emulsion concentrates (EC), are then applied onto the surface of the covering soil as aqueous suspension or emulsion with addition of 0.5% additive at a water application rate of 600 l/ha (converted). After the treatment, the pots are placed in a greenhouse and kept under good growth conditions for the trial plants. After about 3 weeks, the effect of the preparations is scored visually in comparison with untreated controls as percentages. For example, 100% activity=the plants have died, 0% activity=like control plants. POLCO: Polygonum convolvulus SETVI: Setaria viridis

Veronica persica = assay: Pre-emergence herbicidal activity against VERPE; conditions: dosage 80 g/ha; for pest or weed control at 80 g/ha: Veronica persica, 504 h
Excerpt: as §1, with “STEME: Stellaria media VERPE: Veronica persica” for “POLCO: Polygonum convolvulus SETVI: Setaria viridis”

Alopecurus myosuroides = assay: Post-emergence herbicidal activity against ALOMY; conditions: dosage 320 g/ha, rated about 3 weeks after treatment; for pest or weed control at 320 g/ha: Alopecurus myosuroides, 504 h
Method in brief: (§2)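 Greenhouse-grown plants treated at one-leaf stage, 2 to 3 weeks after sowing, with WP or EC formulations sprayed as aqueous suspension/emulsion plus 0.5% additive at 600 l/ha. Activity rated visually about 3 weeks later versus untreated controls (100% = plants dead, 0% = like control).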

[1] = Pre-emergence treatment, summary over harmful plants; conditions: 504 h, application rate of 0.08 kg of active substance or less per hectare, read-out: herbicidal action, pre-emergence treatment (very good activity)
Excerpt: 1. Pre-Emergence Herbicidal Action and Crop Plant Compatibility
as §1, with “Seeds” for “1. Pre-Emergence Herbicidal Action and Crop Plant Compatibility Seeds”, “plants.” for “plants. POLCO: Polygonum convolvulus SETVI: Setaria viridis”
As shown by the results, compounds according to the invention such as, for example, the compounds No. I-21 and other compounds from the tables (for example I-10, I-26, I-09, I-30, I-28, I-29, I-27, I-01, I-06, I-34, I-19, I-11, I-36, I-37, I-38, I-41, I-42, I-43, I-44, I-46, I-49) have, when used for pre-emergence treatment, very good activity (80% to 100% herbicidal action) against harmful plants such as Abutilon theophrasti, Alopecurus myosuroides, Amaranthus retroflexus, Avena fatua, Echinochloa crus-galli, Hordeum murinum, Lolium rigidum, Pharbitis purpurea, Polygonum convolvulus, Setaria viridis, Stellaria media, Veronica persica and Viola tricolor at an application rate of 0.08 kg of active substance or less per hectare.

Lolium rigidum = assay: Pre-emergence herbicidal activity against LOLRI; conditions: dosage 80 g/ha; for pest or weed control at 80 g/ha: Lolium rigidum, 504 h
Excerpt: as §1, with “LOLRI: Lolium rigidum PHBPU: Pharbitis purpurea” for “POLCO: Polygonum convolvulus SETVI: Setaria viridis”

Abutilon theophrasti = assay: Post-emergence herbicidal activity against ABUTH; conditions: dosage 320 g/ha, rated about 3 weeks after treatment; for pest or weed control at 320 g/ha: Abutilon theophrasti, 504 h
Method in brief: as §2

Hordeum murinum = assay: Post-emergence herbicidal activity against HORMU; conditions: dosage 320 g/ha; for pest or weed control at 320 g/ha: Hordeum murinum, 504 h
Method in brief: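 Greenhouse pot plants sprayed post-emergence at one-leaf stage (2-3 weeks after sowing) with WP or EC formulations, 0.5% additive, 600 l/ha water. Visual rating about 3 weeks later versus untreated controls: 100% = plants dead, 0% = like control.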

Viola tricolor = assay: Pre-emergence herbicidal activity against VIOTR; conditions: dosage 80 g/ha
Excerpt: as §1, with “VIOTR: Viola tricolor” for “POLCO: Polygonum convolvulus SETVI: Setaria viridis”

Structure (SMILES) | pest or weed control at 80 g/ha (Setaria viridis) [%] | pest or weed control at 80 g/ha (Veronica persica) [%] | pest or weed control at 320 g/ha (Alopecurus myosuroides) [%] | pest or weed control at 80 g/ha [1] [%] | pest or weed control at 80 g/ha (Lolium rigidum) [%] | pest or weed control at 320 g/ha (Hordeum murinum) [%] | pest or weed control at 320 g/ha (Abutilon theophrasti) [%] | also measured
COC(=O)[C@H]1C[C@@H](NC(=O)[C@@]2(C)CC(c3cc(F)cc(F)c3)=NO2)CO1 (mixture of isomers) [I-09, methyl cis-4-[[(5R)-3-(3,5-difluorophenyl)-5-methyl-4H-isoxazole-5-carbonyl]amino]tetrahydrofuran-2-carboxylate] | 80 | 90 | 90 | 80 to 100 | – | – | – | –
CC1(C(=O)NC2COC(C(=O)O)C2)CC(c2cc(F)cc(F)c2)=NO1 (mixture of isomers) [I-41] | – | – | – | – | – | – | – | Pre-emergence herbicidal activity against LOLRI in % (Lolium rigidum): 100%; Pre-emergence herbicidal activity against SETVI in % (Setaria viridis): 100%; Post-emergence herbicidal activity against ALOMY in % (Alopecurus myosuroides): 100%; Post-emergence herbicidal activity against ABUTH in % (Abutilon theophrasti): 80%; Post-emergence herbicidal activity against HORMU in % (Hordeum murinum): 100%
CCOC(=O)[C@H]1C[C@@H](NC(=O)C2(C)CC(c3cccc(F)c3)=NO2)CO1 (mixture of isomers) [I-30, ethyl cis-4-[[(5RS)-3-(3-fluorophenyl)-5-methyl-4H-isoxazole-5-carbonyl]amino]tetrahydrofuran-2-carboxylate] | 100 | – | 100 | 80 to 100 | 100 | 100 | – | –
CC(C)OC(=O)[C@H]1C[C@@H](NC(=O)C2(C)CC(c3cccc(F)c3)=NO2)CO1 (mixture of isomers) [I-32, isopropyl cis-4-[[(5RS)-3-(3-fluorophenyl)-5-methyl-4H-isoxazole-5-carbonyl]amino]tetrahydrofuran-2-carboxylate] | 100 | – | 90 | – | 100 | 90 | 80 | –
CC1(C(=O)N[C@H]2CO[C@@H](C(=O)OCc3ccccc3)C2)CC(c2cccc(F)c2)=NO1 (mixture of isomers) [I-34, benzyl cis-4-[[(5RS)-3-(3-fluorophenyl)-5-methyl-4H-isoxazole-5-carbonyl]amino]tetrahydrofuran-2-carboxylate] | 90 | – | 100 | 80 to 100 | 100 | 100 | 80 | –
COC(=O)[C@H]1C[C@@H](NC(=O)C2(C)CC(c3cc(F)cc(F)c3)=NO2)CO1 (relative stereo) [I-01, methyl cis-4-[[3-(3,5-difluorophenyl)-5-methyl-4H-isoxazole-5-carbonyl]amino]tetrahydrofuran-2-carboxylate] | – | 80 | 100 | 80 to 100 | – | – | 80 | –
C=CC1(C(=O)N[C@H]2CO[C@@H](C(=O)O)C2)CC(c2cc(F)cc(F)c2)=NO1 (relative stereo) [I-21, cis-4-[[3-(3,5-difluorophenyl)-5-vinyl-4H-isoxazole-5-carbonyl]amino]tetrahydrofuran-2-carboxylic acid] | 90 | 100 | 90 | 80 to 100 | – | – | – | –
COC(=O)C1COCC1NC(=O)C1(C)CC(c2cc(F)cc(F)c2)=NO1 (centres unmarked) [I-19, methyl 4-[[3-(3,5-difluorophenyl)-5-methyl-4H-isoxazole-5-carbonyl]amino]tetrahydrofuran-3-carboxylate] | – | 90 | 90 | 80 to 100 | – | – | 80 | –
C=C[C@]1(C(=O)NC2COCC2C(=O)OC)CC(c2cc(F)cc(F)c2)=NO1 (stereo partly drawn) [I-26, methyl 4-[[(5S)-3-(3,5-difluorophenyl)-5-vinyl-4H-isoxazole-5-carbonyl]amino]tetrahydrofuran-3-carboxylate] | 100 | 100 | 90 | 80 to 100 | – | – | – | –
COC(=O)C1COCC1NC(=O)[C@@]1(C)CC(c2cc(F)cc(F)c2)=NO1 (stereo partly drawn) [I-28, methyl 4-[[(5R)-3-(3,5-difluorophenyl)-5-methyl-4H-isoxazole-5-carbonyl]amino]tetrahydrofuran-3-carboxylate] | – | 90 | 90 | 80 to 100 | – | – | 80 | –
COC(=O)C1COCC1NC(=O)C1(OC)CC(c2cc(Cl)cc(Cl)c2)=NO1 (centres unmarked) [I-29, methyl 4-[[3-(3,5-dichlorophenyl)-5-methoxy-4H-isoxazole-5-carbonyl]amino]tetrahydrofuran-3-carboxylate] | – | 100 | 90 | 80 to 100 | – | – | 80 | –
COC(=O)C1=C[C@H](NC(=O)C2(C)CC(c3cccc(F)c3)=NO2)CO1 (stereo partly drawn) [I-39, methyl (3S)-3-[[3-(3-fluorophenyl)-5-methyl-4H-isoxazole-5-carbonyl]amino]-2,3-dihydrofuran-5-carboxylate] | – | – | 100 | – | 100 | 100 | 80 | –
COC(=O)C1=C[C@@H](NC(=O)C2(C)CC(c3cccc(F)c3)=NO2)CO1 (stereo partly drawn) [I-46, methyl (3R)-3-[[3-(3-fluorophenyl)-5-methyl-4H-isoxazole-5-carbonyl]amino]-2,3-dihydrofuran-5-carboxylate] | 100 | 80 | 100 | 80 to 100 | 100 | 100 | 80 | –
COC(=O)C1CC(NC(=O)C2(C(C)(F)F)CC(c3cc(F)cc(F)c3)=NO2)CO1 (centres unmarked) [I-49] | – | – | – | – | – | – | – | Pre-emergence herbicidal activity against LOLRI in % (Lolium rigidum): 100%; Pre-emergence herbicidal activity against SETVI in % (Setaria viridis): 100%; Pre-emergence herbicidal activity against VIOTR in % (Viola tricolor): 100%; Pre-emergence herbicidal activity against VERPE in % (Veronica persica): 100%; Post-emergence herbicidal activity against ALOMY in % (Alopecurus myosuroides): 90%
